Assay results as given in EPA's ToxRefDB 2.

How the values were obtained:
[1] = system: rat; details: Prenatal developmental toxicity study; wistar; Oral; Feed; dose end: 15 GD; group: maternal; systemic / in life observation / body weight / body weight gain + systemic / in life observation / food consumption / food consumption
[2] = system: mouse; details: Chronic toxicity; b6c3f1; Oral; Feed; dose end: 2 year; group: systemic; systemic / clinical chemistry / alkaline phosphatase (alp/alk) / alkaline phosphatase (alp/alk) + systemic / organ weight / liver / absolute…
[3] = system: mouse; details: Subchronic oral toxicity in rodents, B6C3F1, Feed, dose end: 3 month, group: systemic
[4] = system: dog; details: Subchronic oral toxicity in nonrodent, beagle, Capsule, dose end: 90 day, group: systemic
[5] = system: dog; details: Chronic toxicity, beagle, Oral, Capsule, dose end: 52 week, group: systemic
[6] = system: rat; details: Multigenerational reproductive toxicity study, fischer, Oral, Feed, dose end: 1 generation
[7] = system: rat; details: Combined chronic toxicity/carcinogenicity, fischer, Oral, Feed, dose end: 2 year, group: systemic
[8] = system: rat; details: Chronic toxicity, fischer, Oral, Feed, dose end: 1 year, group: systemic
[9] = system: mouse; details: Carcinogenicity, Charles River, Oral, Feed, dose end: 104 week, group: systemic
[10] = system: rat; details: Prenatal developmental toxicity study, sprague dawley, Oral, Gavage/Intubation, dose end: 15 GD
[11] = system: dog; details: Chronic toxicity; beagle; Oral; Feed; dose end: 52 week; group: systemic; systemic / organ weight / liver / relative to body weight + systemic / hematology / platelet / platelet + systemic / organ weight / kidney…
[12] = system: rat; details: Subchronic oral toxicity in rodents, sprague dawley, Feed, dose end: 13 week, group: systemic, systemic / pathology gross / kidney / discolored + systemic / in life observation / body weight / body weight + systemic / in life …
[13] = system: dog; details: Chronic toxicity, beagle, Oral, Feed, dose end: 52 week, group: systemic
[14] = system: dog; details: Subchronic oral toxicity in nonrodent, beagle, Feed, dose end: 13 week, group: systemic, systemic / clinical chemistry / albumin-globulin ratio / albumin-globulin ratio + systemic / clinical chemistry / aspartate aminotransferase…
[15] = system: mouse; details: Subchronic oral toxicity in rodents, cd1, Feed, dose end: 13 week, group: systemic, systemic / pathology microscopic / liver / lipid deposition
[16] = system: rat; details: Prenatal developmental toxicity study, wistar, Oral, Gavage/Intubation, dose end: 16 GD
[17] = system: rat; details: Combined chronic toxicity/carcinogenicity, sprague dawley, Oral, Feed, dose end: 104 week, group: systemic
[18] = systemic / in life observation / body weight / body weight + systemic / in life observation / body weight / body weight gain
[19] = systemic / hematology / [other] / [other] + systemic / hematology / jolly bodies / jolly bodies + systemic / hematology / macrocytosis / …
[20] = systemic / hematology / polychromasia / polychromasia + systemic / hematology / lymphocyte / lymphocyte + systemic / in life observation / …
[21] = group: offspring, systemic / in life observation / clinical signs / urogenital staining + systemic / urinalysis / appearance and color / appearance and color
[22] = group: parental, systemic / organ weight / liver / absolute + systemic / organ weight / liver / relative to body weight + systemic / in life observation / …
[23] = systemic / in life observation / clinical signs / urine, discoloration + systemic / clinical chemistry / glucose / glucose
[24] = systemic / pathology microscopic / mammary gland / fibroadenoma + systemic / clinical chemistry / urea nitrogen / urea nitrogen + systemic…
[25] = systemic / organ weight / adrenal gland / absolute + systemic / organ weight / adrenal gland / relative to body weight + systemic / organ …
[26] = systemic / in life observation / body weight / body weight gain + systemic / pathology microscopic / lung / carcinoma + systemic / in life …
[27] = group: developmental, developmental / developmental malformation / kidney / small renal papilla
[28] = group: developmental, developmental / developmental malformation / kidney / small renal papilla + developmental / developmental malformation / spinal cord / …
[29] = group: maternal, systemic / in life observation / food consumption / food consumption + systemic / pathology gross / spleen / discolored
[30] = group: maternal, systemic / in life observation / food consumption / food consumption + systemic / pathology gross / spleen / discolored + reproductive / …
[31] = systemic / hematology / [other] / [other] + systemic / hematology / erythroblast / erythroblast + systemic / hematology / monocytes / …
[32] = systemic / hematology / erythroblast / erythroblast
[33] = group: developmental, developmental / developmental malformation / kidney / dilated renal pelvis + developmental / developmental malformation / ureter / distended
[34] = group: maternal, systemic / in life observation / clinical signs / salivation
[35] = systemic / in life observation / body weight / body weight + systemic / in life observation / body weight / body weight gain + systemic / in…

`CC(C)(C)c1ccc(O)cc1` [4-tert-Butylphenol] showed an LEL [1] of 3590 mg/kg/day and an LOAEL [1] of 3590 mg/kg/day.
`C=C(C)CN(CC)c1c([N+](=O)[O-])cc(C(F)(F)F)cc1[N+](=O)[O-]` [Ethalfluralin] showed an LEL [2] of 47 mg/kg/day, an LOAEL [2] of 47 mg/kg/day and an NEL [2] of 11.6 mg/kg/day. The NOAEL [2] was 11.6 mg/kg/day, the LEL ([3]; systemic / clinical chemistry / bilirubin / total bilirubin + systemic / organ weight / kidney / absolute) was 136 mg/kg/day and the NOAEL ([3]; systemic / in life observation / body weight / body weight + systemic / clinical chemistry / alanine aminotransferase (alt/sgpt) / alanine …) was 285 mg/kg/day. For the same compound, the LOAEL [3, 18] was 538 mg/kg/day, the NEL ([3]; systemic / in life observation / body weight / body weight gain + systemic / clinical chemistry / bilirubin / total bilirubin + systemic / …) was 68 mg/kg/day and the LOAEL ([4]; systemic / in life observation / clinical signs / anorexia + systemic / in life observation / clinical signs / vomitting) was 125 mg/kg/day. For the same compound, the LEL ([4]; systemic / in life observation / clinical signs / anorexia + systemic / in life observation / clinical signs / vomitting + systemic / in …) was 125 mg/kg/day, the LOAEL [5, 19] was 20 mg/kg/day and the NOAEL [5, 19] was 4 mg/kg/day. The LEL [5, 20] was 4 mg/kg/day, the NEL [5, 20] was under 4 mg/kg/day and the LEL [6, 21] was 20 mg/kg/day. For the same compound, the LOAEL [6, 21] was over 61 mg/kg/day, the NEL [6, 21] was 8 mg/kg/day and the NOAEL [6, 21] was at least 61 mg/kg/day. It also gave an LOAEL ([6]; group: parental, systemic / organ weight / liver / absolute + systemic / organ weight / liver / relative to body weight) of 61 mg/kg/day, an NEL [6, 22] of 8 mg/kg/day and an NOAEL [6, 22] of 20 mg/kg/day. The LEL ([6]; group: parental, systemic / organ weight / liver / relative to body weight + systemic / in life observation / clinical signs / urogenital staining + systemic…) was 20 mg/kg/day, the LEL [7, 23] was 5 mg/kg/day and the NEL [7, 23] was under 5 mg/kg/day. The LOAEL [7, 24] was over 37.5 mg/kg/day, the NOAEL [7, 24] was at least 37.5 mg/kg/day and the LOAEL ([8]; systemic / in life observation / body weight / body weight gain + systemic / organ weight / liver / relative to body weight) was 37.5 mg/kg/day. It also gave an NOAEL ([8]; systemic / in life observation / body weight / body weight gain + systemic / organ weight / liver / relative to body weight + systemic / …) of 12.5 mg/kg/day, an LEL [8, 25] of 5 mg/kg/day and an NEL [8, 25] of under 5 mg/kg/day.
Compound `CN(C)C(=O)Nc1cccc(C(F)(F)F)c1` [Fluometuron] has an LOAEL ([9]; systemic / in life observation / body weight / body weight gain) of 260 mg/kg/day, an NEL [9, 26] of 1.2 mg/kg/day and an NOAEL [9, 26] of 61.5 mg/kg/day. For the same compound, the LEL ([9]; systemic / pathology microscopic / lung / carcinoma + systemic / in life observation / clinical signs / [other]) was 61.5 mg/kg/day, the LEL [10, 27] was 100 mg/kg/day and the LOAEL [10, 27] was 100 mg/kg/day. It also gave an NEL [10, 28] of 10 mg/kg/day, an NOAEL [10, 28] of 10 mg/kg/day and an LEL [10, 29] of 100 mg/kg/day. For the same compound, the LOAEL [10, 29] was 100 mg/kg/day, the NEL [10, 30] was 10 mg/kg/day and the NOAEL [10, 30] was 10 mg/kg/day. For the same compound, the NEL [11] was 237 mg/kg/day and the NOAEL [11] was 237 mg/kg/day.
`COC(=O)c1ccc(I)cc1S(=O)(=O)[N-]C(=O)Nc1nc(C)nc(OC)n1.[Na+]` [Iodosulfuron-methyl-sodium] gave an LEL [12] of 347 mg/kg/day, an LOAEL [12] of 347 mg/kg/day and an LOAEL [13, 31] of 43.7 mg/kg/day. It also gave an NOAEL [13, 31] of 7.25 mg/kg/day, an LEL [13, 32] of 41.8 mg/kg/day and an NEL [13, 32] of 7.37 mg/kg/day. For the same compound, the LEL [14] was 49 mg/kg/day, the LOAEL [14] was 49 mg/kg/day and the NEL [14] was 8.1 mg/kg/day. The NOAEL [14] was 8.1 mg/kg/day, the LEL [15] was 139 mg/kg/day and the LOAEL [15] was 139 mg/kg/day. It also gave an NEL [15] of under 139 mg/kg/day, an NOAEL [15] of under 139 mg/kg/day and an LEL [16, 33] of 100 mg/kg/day. It also gave an LOAEL [16, 33] of 100 mg/kg/day, an NEL [16, 33] of under 100 mg/kg/day and an NOAEL [16, 33] of under 100 mg/kg/day. The LEL [16, 34] was 1000 mg/kg/day, the LOAEL [16, 34] was 1000 mg/kg/day and the NEL [16, 34] was 315 mg/kg/day. It also gave an NOAEL [16, 34] of 315 mg/kg/day, an LOAEL [17, 18] of 331 mg/kg/day and an LEL [17, 35] of 29.7 mg/kg/day. The NEL [17, 35] was 2.96 mg/kg/day and the NOAEL [17, 35] was 29.7 mg/kg/day.
